Results: patent publication US20080070924A1 (priority 2003, published 2008)
Like-named read-outs stand apart in the source and are kept apart here.

What was measured:
[1] = test system: ricinus oil-induced diarrhea; settings: in vivo; for effect on ricinus oil-induced diarrhea: sc
[2] = test system: opioid-induced PCO2 increases; settings: rat, in vivo, sc
[3] = test system: acetone-induced lifting behaviour; assay: Tolerance in a chronic neuropathic pain model (CCI gerbils, acetone spray test); type: in vivo
[4] = test system: ricinus oil-induced diarrhea; assay: whole plant or invertebrate; settings: in Meriones unguiculatus, sc, 8 h, read-out: ED50 of the opioid to postpone the ricinus oil-induced diarrhea
morphine-induced emesis = assay: Inhibition of morphine-induced emesis in ferrets
charcoal propulsion [5] = test system: charcoal propulsion; parameters: species or system rats; settings: rat, in vivo
[6] = test system: opioid-induced PCO2 increases; settings: guinea pig, in vivo
[7] = test system: ricinus oil-induced diarrhea; settings: rat, in vivo
charcoal propulsion [8] = settings: in vivo
[9] = test system: opioid-induced PCO2 increases; settings: in vivo

## COc1ccc2c3c1O[C@H]1[C@@H](O)C=C[C@H]4[C@@H](C2)N(C)CC[C@@]341 [Codeine, codeine]
[1]
  effect on ricinus oil-induced diarrhea: dose-dependent inhibition

## CN1CC[C@]23c4c5ccc(O)c4O[C@H]2[C@@H](O)C=C[C@H]3[C@H]1C5 [Morphine, morphine]
[2]
  PCO2 after opioid: increased levels of PCO2
[3]; 2.5 mg/kg i.p. twice daily
  acetone-induced lifting behaviour, acute effect: acutely reduced
[3]; 2.5 mg/kg i.p. twice daily, reductions of activity from the second day onwards
  acetone-induced lifting behaviour at day 7: no differences with the controls
[4]
  ED50: 0.72 mg/kg
[1]
  effect on ricinus oil-induced diarrhea: dose-dependent inhibition
morphine-induced emesis; i.p.
  doses causing central side-effects: > 0.8 mg/kg
  emesis on increasing the dose from 0.4 to 0.8 mg/kg: more animals with emesis and increased frequencies of periods of emesis, retches and vomiting
Charcoal propulsion [5]
  charcoal test result in rats compared with gerbils: comparable results
[6]; sc
  PCO2 after opioid: increase in PCO2
[7]; sc
  effect on ricinus oil-induced diarrhea: dose-dependent inhibition

## COc1ccc2c3c1O[C@H]1C(=O)CC[C@@]4(O)[C@@H](C2)N(C)CC[C@]314 [Oxycodone, oxycodone]
[4]
  ED50: 5.02 mg/kg
[1]
  effect on ricinus oil-induced diarrhea: dose-dependent inhibition

## (+)-(B)-trans-4-[1-[3,5-bis(trifluoromethyl)benzoyl]-2-(phenylmethyl)-4-piperidinyl]-N-(2,6-dimethylphenyl)-1-piperazine acetamide (L)-malic acid (1:1) [Compound 95]
[2]; 40 mg/kg
  effect on PCO2, given alone: did not affect the PCO2 levels
  effect on opioid-induced increases in PCO2: some attenuation
  number of animals reaching high (>50 mm Hg) levels of PCO2: especially reduced
[3]; 2.5 mg/kg i.p. twice daily, 11 days, during some days of the experiment
  acetone-induced lifting behaviour, given alone: limited activity
[3]; 2.5 mg/kg morphine with 2.5 mg/kg Compound 95 i.p. twice daily, 11 days
  activity over the testing period, combination with morphine: the activity remained present over the entire testing period
Charcoal propulsion [8]
  effect of adding to the opioids on charcoal propulsion: did not affect the outcome of the opioids
  effect on charcoal propulsion, given alone: inactive
[1]
  effect of adding to the opioids on their ED50s: did not alter the ED50s of the opioids
  effects on constipation, given alone: minimal effects
[9]
  effect on PCO2, given alone: no effects were observed
  effect on opioid-induced PCO2 levels: significant decreases
morphine-induced emesis; at 0.4 mg/kg morphine
  frequency of retches, vomiting and periods of emesis: non-significant tendency
morphine-induced emesis; at 0.8 mg/kg morphine, 10 mg/kg Compound 95 i.p.
  number (frequency) of vomits: diminished significantly
morphine-induced emesis; at 0.8 mg/kg morphine, 10 and 40 mg/kg i.p. Compound 95
  number of retches: significantly reduced
Charcoal propulsion [5]
  charcoal test result in rats compared with gerbils: comparable results
[6]
  effect on PCO2, given alone: did not affect PCO2 values
  effect on opioid-induced PCO2 levels: reductions in the opioid-induced PCO2 levels
[7]
  effect of adding to the opioids on their ED50s: did not alter the ED50s of the opioids
  effects on constipation, given alone: minimal effects
